According to patent US9862682B2, “Functionalized pegylated cyanine compounds, pharmaceutical compositions, and methods of use thereof” (BroadPharm, priority 2016, dated 2018):

Assay: Photophysical properties of cyanine dyes in dimethyl sulfoxide (DU 800 spectrophotometer)
Assay type: physicochemical
Details: for Excitation (nm): absorption
Text: The photophysical properties of a variety of cyanine dyes in dimethyl sulfoxide has been measured by the DU 800 spectrophotometer.

| Emission (nm) | Extinction Coefficient | Excitation (nm) | SMILES |
| --- | --- | --- | --- |
| 682 | 7.11 × 10^4 | 661 | COCCOCCOCCOCC[n+]1c(/C=C/C=C/C=C2\Sc3ccccc3N2CCOCCOCCOCCC(=O)O)sc2ccccc21 [E1] |
| 682 | 7.31 × 10^4 | 661 | O=C(O)CCOCCOCCOCCN1\C(=C/C=C\C=C\c2sc3ccccc3[n+]2CCOCCOCCOCCC(=O)O)Sc2ccccc21 [E2] |
| 685 | 7.65 × 10^4 | 661 | COCCOCCOCCOCC[N+]1=C(/C=C/C=C/C=C2\Sc3ccccc3N2CCOCCOCCOCCC(=O)O)C(C)(C)c2ccccc21 [G1] |
| 817 | 1.16 × 10^5 | 785 | CC1(C)C(/C=C/C2=C(Cl)C(=C/C=C3/N(CCOCCOCCOCCN=[N+]=[N-])c4ccccc4C3(C)C)/CCC2)=[N+](CCOCCOCCOCCN=[N+]=[N-])c2ccccc21 [F1] |
| 671 | 4.23 × 10^4 | 652 | COCCOCCOCCOCCN1/C(=C/C=C/C=C/C2=[N+](CCOCCOCCOCCN=[N+]=[N-])c3ccccc3C2(C)C)Sc2ccccc21 [G2] |

Further lines, the compound ahead of its results:

| SMILES | Emission (nm) | Extinction Coefficient | Excitation (nm) |
| --- | --- | --- | --- |
| C#CCOCCOCCOCCOCCOc1ccc2c(c1)C(C)(C)\C(=C/C=C\C=C/C1=[N+](C)c3ccc(OCCOCCOCCOCCOC)cc3C1(C)C)N2C [B1] | 699 | 6.12 × 10^4 | 649 |
| COCCOCCOCCOCC[N+]1=C(/C=C/C=C/C=C2/N(CCOCCOCCOCCN)c3ccccc3C2(C)C)C(C)(C)c2ccccc21 [A2] | 667 | 1.63 × 10^5 | 649 |
| COCCOCCOCCOCC[N+]1=C(/C=C/C=C/C=C2\N(CCOCCOCCOCCOCCC(=O)NCCC(=O)N3Cc4ccccc4C#Cc4ccccc43)c3ccccc3C2(C)C)C(C)(C)c2ccccc21 [D4] | 667 | 6.42 × 10^4 | 649 |
| CC1(C)C(/C=C/C=C/C=C2\N(CCOCCOCCOCCOCCC(=O)NCCN3C(=O)C=CC3=O)c3ccccc3C2(C)C)=[N+](CCOCCOCCOCCN=[N+]=[N-])c2ccccc21 [D3] | 667 | 6.94 × 10^4 | 649 |
